Measured values as given in patent publication US6841684B2, “Imidiazoles having reduced side effects” (Allergan, Inc., priority 1997, dated 2005).
Marks after values point to notes of the source that are not given here.

Legend:
[1] = test system: conscious cynomolgus monkeys; assay: Cardiovascular side effects (blood pressure, heart rate) after i.v. administration; type: in vivo, cynomolgus monkey; conditions: up to 6 hours, + with * = increase from base levels
Excerpt: Cardiovascular measurements were made in a different group of monkeys using a BP 100S automated sphygmomanometer (Nippon Colin,. Japan).

[2] = test system: cynomolgus monkeys with sustained elevated IOP; assay: IOP lowering in conscious monkeys, eyes made hypertensive by argon laser photocoagulation; type: in vivo, cynomolgus monkey; conditions: Macaca fascicularis, topical, 6 h, single 50 μl eye drop, up to 6 hours, read-out: Maximum % Decrease From Pretreatment Levels Hypertensive Eye (IOP); for inhibition in vivo at 0.3 %: ocular dose 0.3%
Excerpt: Measurements of IOP were made in fully conscious female cynomolgus monkeys weighing 3-4 kg with sustained elevated IOP that was produced in the right eye by argon laser photocoagulation of the trabecular meshwork. Animals were usable for experiments 2 months following surgery. During the experiments, monkeys sat in specially designed chairs (Primate Products, San Francisco), and were fed orange juice and fruit as needed. A 30R model Digilab pneumatonometer (Alcon, Tex.) was used to measure IOP.
Twenty five μl of an anesthetic (proparacaine) was topically applied to each monkey before IOP measurements to minimize ocular discomfort due to tonometry. Two baseline measurements were made prior to instillation of the drugs, followed by periodic measurements up to 6 hours post-instillation. The test compounds were administered unilaterally as a single 50 μl eye drop; the contralateral eyes received an equal volume of saline.

[3] = biological target: T1, rat α2B (RNG gene) receptor (Rattus norvegicus, UniProt P19328); assay: RSAT (Receptor Selection and Amplification Technology) assay, alpha 2B; type: cell-based; conditions: ratio of maximal effect to that of standard full agonist oxymetazoline
T1 construct: expressed in transfected cells; host or cells: NIH-3T3 cells, calcium phosphate cotransfection
T1 sequence (P19328 1-453): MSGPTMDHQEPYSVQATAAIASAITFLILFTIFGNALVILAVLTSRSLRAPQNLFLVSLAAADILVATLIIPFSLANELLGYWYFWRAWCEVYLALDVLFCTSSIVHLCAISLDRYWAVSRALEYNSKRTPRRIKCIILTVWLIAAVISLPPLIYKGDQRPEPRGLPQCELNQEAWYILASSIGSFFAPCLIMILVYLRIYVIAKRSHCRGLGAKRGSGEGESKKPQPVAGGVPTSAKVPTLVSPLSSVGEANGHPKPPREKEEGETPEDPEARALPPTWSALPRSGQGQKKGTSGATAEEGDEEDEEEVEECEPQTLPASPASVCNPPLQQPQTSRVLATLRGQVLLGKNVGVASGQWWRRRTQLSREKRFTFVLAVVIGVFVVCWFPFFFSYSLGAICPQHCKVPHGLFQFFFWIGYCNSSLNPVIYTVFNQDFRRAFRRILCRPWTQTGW
Method in brief: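 NIH-3T3 cells transiently cotransfected with receptor, hybrid Gq/i5 protein and β-galactosidase marker were incubated with compound dilutions in triplicate for 72-96 hr at 37°. Proliferation was read as β-galactosidase activity (o-nitrophenyl-β-D-galactopyranoside, overnight at 30°, OD 420 nm). EC50 and efficacy were derived, the latter relative to a standard full agonist's maximal effect.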

[4] = test system: rat retinal ganglion cells after optic nerve injury; assay: Calibrated rat optic nerve injury model, retinal ganglion cell numbers; type: in vivo
Excerpt: These models include light-induced photoreceptor degeneration in albino rat, as described in Wen et al, “Alpha2-adrenergic agonists induce basic fibroblast growth factor expression in photoreceptors in vivo and ameliorate light damage.” J. Neurosci. […] Invest. Ophthalmol. Vis. Sci. 37, 540,S114. […] Additionally commonly assigned and co-pending application, 08/496,292 filed on 28 Jun.

[5] = test system: conscious cynomolgus monkeys; assay: Sedation score during the IOP experiments; type: in vivo, cynomolgus monkey; parameters: key to Sedation (0-4): 0=alert, typical vocalization, movement, etc.; 1=calm, less movement; 2=slightly sedated, some vocalization, responsive to stimulation; 3=sedated, no vocalization, some response to stimulation; 4=asleep
Procedure: At the same time, sedation was measured and assessed according to the following score: 0=alert, typical vocalization, movement, etc.; 1=calm, less movement; 2=slightly sedated, some vocalization, responsive to stimulation; 3=sedated, no vocalization, some response to stimulation; 4=asleep.

[6] = test system: rats; assay: Sedative activity measured using an activity chamber; type: in vivo, rat; conditions: for Sedation (%): 30 minutes after dosing
Excerpt: (§1) Alleviation of pain including neuropathic pain is another example of a disorder in which the compounds of the invention are useful and advantageous since pain is alleviated without undesirable side effects. […] (See, for example, Kim, S. and Chung, J. “An experimental model for peripheral neuropathy produced by segmental spinal nerve ligation in the rat.” Pain 50 pp. 355-363 (1992).) Following ligation of two spinal nerves, the animals develop a sensitivity to normally non-painful stimuli such as touch. The ability of alpha2 compounds to reverse this sensitivity, called allodynia, was tested 30 minutes after dosing by either intrathecal or intraperitoneal administration. The sedative activity of each compound was also measured using an activity chamber.

[7] = test system: rats with ligation of two spinal nerves; assay: Spinal nerve ligation model of neuropathic pain, reversal of tactile allodynia; type: in vivo, rat; conditions: 30 minutes after dosing
Excerpt: as §1

Structure (SMILES): Cl.O=C1c2ccsc2CCC1Cc1c[nH]cn1 (stereo not shown) [Example B-9b, 5-(1H-imidazol-4(5)-ylmethyl)-6,7-dihydro-5H-benzo[b]thiophen-4-one, hydrogen chloride salt]
- Maximum % Decrease From Pretreatment Levels, Heart Rate ([1]; i.v. 500 μg/kg): +20.2 ± 3.4* %
- Maximum % Decrease From Pretreatment Levels, Mean Arterial Blood Pressure ([1]; i.v. 500 μg/kg): 2.8 ± 1.8%
- inhibition in vivo at 0.1 % ([2]; ocular dose 0.1%): 18.7 ± 5.5%
- inhibition in vivo at 0.3 % [2]: 26.9 ± 6.1%
- Intrinsic Activity Relative to Oxymetazoline, Alpha 2B [3]: 0.68
- Retinal Ganglion Cell Numbers at 2 Weeks Post-Injury ([4]; 0.5 mg/kg i.p., vehicle control 33 ± 8): 73 ± 12 cells/microscopic field
- neuroprotection (in words) ([4]; calibrated rat optic nerve injury model): neuroprotective
- Sedation (0-4) ([5]; ocular dose 0.1%): 0
- Sedation (0-4) ([5]; ocular dose 0.3%): 0

Structure (SMILES): Clc1cccc(Cl)c1N=C1NCCN1 [clonidine, reference compound]
- Maximum % Decrease From Pretreatment Levels, Heart Rate ([1]; i.v. 17 μg/kg): 32 ± 4%
- Maximum % Decrease From Pretreatment Levels, Mean Arterial Blood Pressure ([1]; i.v. 17 μg/kg): 29 ± 7%
- Maximum % Decrease From Pretreatment Levels, Heart Rate ([1]; i.v. 50 μg/kg): 50 ± 5%
- Maximum % Decrease From Pretreatment Levels, Mean Arterial Blood Pressure ([1]; i.v. 50 μg/kg): 35 ± 5%
- inhibition in vivo at 0.3 % [2]: 41 ± 5%
- Sedation (%) ([6]; intrathecal 1 μg): 15%
- Sedation (%) ([6]; intrathecal 10 μg): 60* %
- sedation (in words) ([6]; intrathecal or intraperitoneal, rats): cause sedation at doses only slightly higher than their anti-allodynic doses
- Reversal of Tactile Allodynia (%) ([7]; intrathecal 0.1 μg): 20* %
- Reversal of Tactile Allodynia (%) ([7]; intrathecal 1 μg): 96* %
- sedation (in words) ([5]; ocular administration, monkeys): caused sedation
- Sedation (0-4) ([5]; ocular dose 0.1%): 1
- Sedation (0-4) ([5]; ocular dose 0.3%): 2
